A short description of assay [1]: cells.
A short description of assay [2]: microbe, parasite or virus in culture. It is filed as functional. To be noted: Mycobacterium tuberculosis.
Assay [3] concerns the target T1, DNA repair protein RAD52 homolog (Homo sapiens, UniProt P43351).
T1 sequence (P43351 whole entry): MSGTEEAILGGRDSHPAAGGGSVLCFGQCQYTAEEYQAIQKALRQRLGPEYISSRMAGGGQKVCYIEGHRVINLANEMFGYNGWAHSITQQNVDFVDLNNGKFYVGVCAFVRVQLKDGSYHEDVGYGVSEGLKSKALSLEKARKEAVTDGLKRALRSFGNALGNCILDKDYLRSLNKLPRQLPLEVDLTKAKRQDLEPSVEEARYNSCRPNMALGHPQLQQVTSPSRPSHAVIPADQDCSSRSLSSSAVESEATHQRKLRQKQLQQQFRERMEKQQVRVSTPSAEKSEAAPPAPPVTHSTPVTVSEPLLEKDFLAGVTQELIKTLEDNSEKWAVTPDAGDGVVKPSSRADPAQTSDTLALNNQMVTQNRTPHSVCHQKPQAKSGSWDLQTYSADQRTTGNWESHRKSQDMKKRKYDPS
It is filed as functional, biochemical.

Assay [4] can be described thus: cells. It is filed as functional, cell-based.
The nature of assay [5]: cells. It is filed as functional, cell-based. This is another data set of the same source.
The target of assay [6] is T2, Adenosylmethionine-8-amino-7-oxononanoate aminotransferase (Mycobacterium tuberculosis, UniProt P9WQ81).
T2 sequence (P9WQ81 whole entry): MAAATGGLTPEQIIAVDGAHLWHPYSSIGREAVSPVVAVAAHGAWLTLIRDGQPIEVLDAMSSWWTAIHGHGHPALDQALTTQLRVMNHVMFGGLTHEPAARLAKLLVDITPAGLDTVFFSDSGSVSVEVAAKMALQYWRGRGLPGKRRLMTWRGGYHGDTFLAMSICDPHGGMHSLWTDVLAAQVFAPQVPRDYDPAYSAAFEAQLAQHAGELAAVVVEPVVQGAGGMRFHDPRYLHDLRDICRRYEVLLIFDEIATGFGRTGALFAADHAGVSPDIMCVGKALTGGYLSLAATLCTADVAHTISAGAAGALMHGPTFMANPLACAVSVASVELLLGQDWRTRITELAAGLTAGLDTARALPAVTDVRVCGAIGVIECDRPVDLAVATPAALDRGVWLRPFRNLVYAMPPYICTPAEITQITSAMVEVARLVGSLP
As to the kind of experiment: Mycobacterium tuberculosis BioA enzyme inhibitor Measured in Biochemical System Using Plate Reader - 2163-02_Inhibitor_Dose_CherryPick_Activity. Format: functional, Mycobacterium tuberculosis UT205.

The target in another assay is T3, Leucine aminopeptidase (Plasmodium falciparum 3D7, UniProt Q8IL11).
T3 sequence (Q8IL11 whole entry): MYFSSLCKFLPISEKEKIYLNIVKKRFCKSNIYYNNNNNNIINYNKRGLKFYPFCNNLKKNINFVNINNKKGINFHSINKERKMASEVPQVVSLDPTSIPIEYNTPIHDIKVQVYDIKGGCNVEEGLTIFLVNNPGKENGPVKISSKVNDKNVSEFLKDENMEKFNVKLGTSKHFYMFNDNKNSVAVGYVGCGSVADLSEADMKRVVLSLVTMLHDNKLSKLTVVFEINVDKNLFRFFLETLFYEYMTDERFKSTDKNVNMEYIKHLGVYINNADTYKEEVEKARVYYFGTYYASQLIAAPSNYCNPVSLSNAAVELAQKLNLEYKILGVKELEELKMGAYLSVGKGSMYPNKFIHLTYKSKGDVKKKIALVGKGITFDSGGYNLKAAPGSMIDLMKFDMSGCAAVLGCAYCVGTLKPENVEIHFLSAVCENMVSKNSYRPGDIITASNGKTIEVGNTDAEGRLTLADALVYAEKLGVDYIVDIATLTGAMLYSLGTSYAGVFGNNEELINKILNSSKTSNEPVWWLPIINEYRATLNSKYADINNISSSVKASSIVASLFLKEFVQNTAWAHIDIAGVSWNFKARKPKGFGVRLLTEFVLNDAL
Nature of the assay: P. falciparum M17LAP inhibitors, primary screen, biochemical, fluorogenic H-Leu-NHMec substrate, 1536-well (AID 1619). Format: functional.

In a further assay the target is T4, Estrogen receptor (Homo sapiens, UniProt P03372).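 Note: potency for inhibiting coactivator peptide recruitment to the receptor.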
T4 sequence (P03372 whole entry): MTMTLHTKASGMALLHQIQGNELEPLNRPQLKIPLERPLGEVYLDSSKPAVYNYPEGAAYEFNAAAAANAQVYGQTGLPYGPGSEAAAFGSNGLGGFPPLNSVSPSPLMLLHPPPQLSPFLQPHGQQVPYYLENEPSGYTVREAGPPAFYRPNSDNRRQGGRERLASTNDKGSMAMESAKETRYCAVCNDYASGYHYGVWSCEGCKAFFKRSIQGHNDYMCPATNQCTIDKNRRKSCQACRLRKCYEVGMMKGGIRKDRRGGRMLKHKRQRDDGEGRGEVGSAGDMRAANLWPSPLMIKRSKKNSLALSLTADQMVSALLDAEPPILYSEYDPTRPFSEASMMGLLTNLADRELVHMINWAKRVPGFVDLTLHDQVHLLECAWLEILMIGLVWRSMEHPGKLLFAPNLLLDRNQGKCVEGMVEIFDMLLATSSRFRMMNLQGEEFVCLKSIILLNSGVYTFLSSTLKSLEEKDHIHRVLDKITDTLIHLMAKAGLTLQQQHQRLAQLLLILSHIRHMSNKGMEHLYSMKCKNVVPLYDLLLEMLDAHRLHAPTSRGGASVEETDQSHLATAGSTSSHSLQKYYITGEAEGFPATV

Assay [7] in a line: M. tuberculosis H37Rv growth inhibitors, H37Rv strain (AID 1626). It is filed as functional.
Assay [8] addresses T5, Rac GTPase-activating protein 1 (Homo sapiens, UniProt Q9H0H5).
T5 sequence (Q9H0H5 whole entry): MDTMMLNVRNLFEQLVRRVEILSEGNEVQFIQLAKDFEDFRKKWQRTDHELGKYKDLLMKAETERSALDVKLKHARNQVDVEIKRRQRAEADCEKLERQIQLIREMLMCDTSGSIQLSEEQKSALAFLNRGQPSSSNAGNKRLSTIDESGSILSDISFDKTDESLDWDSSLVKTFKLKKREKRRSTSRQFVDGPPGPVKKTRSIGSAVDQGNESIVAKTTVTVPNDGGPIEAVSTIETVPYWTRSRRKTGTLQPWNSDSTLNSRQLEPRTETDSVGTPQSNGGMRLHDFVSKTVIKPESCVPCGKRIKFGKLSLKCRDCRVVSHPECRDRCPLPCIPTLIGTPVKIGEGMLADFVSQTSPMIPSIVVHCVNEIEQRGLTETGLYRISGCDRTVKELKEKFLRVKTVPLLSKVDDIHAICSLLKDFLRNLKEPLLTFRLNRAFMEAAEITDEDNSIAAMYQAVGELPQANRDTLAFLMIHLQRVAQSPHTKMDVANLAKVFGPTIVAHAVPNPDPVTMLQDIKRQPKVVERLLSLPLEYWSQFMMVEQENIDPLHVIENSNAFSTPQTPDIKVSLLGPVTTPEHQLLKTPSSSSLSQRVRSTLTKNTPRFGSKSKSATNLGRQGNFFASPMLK
Nature of the assay: blockers of MgcRacGAP-driven Rac1 GTP hydrolysis – biochemical, ADP Hunter fluorescence, primary and confirmatory, confirmation (AID 624330). It is filed as functional.

Assay [9] can be described thus: cells. Format: functional, cell-based. This is another data set of the same source.
Assay [10] can be described thus: cells. Format: functional, cell-based. The source holds these as a separate data set.
Assay [11] is described as follows: viability of uninfected HEp-2 cells – cell-based, HTS, cytotoxicity control for RSV inhibitor project, dose response (AID 2410). To be noted: human respiratory syncytial virus. It is filed as functional.
The next assay deals with Paired box protein Pax-8 (Homo sapiens, UniProt Q06710). Nature of the assay: PAX8 transcriptional activity inhibition in RMG-I – RMG-I cells, luciferase, cherry-pick, dose response (AID 687027).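 Note: luciferase reporter driven by Pax8 target thyroperoxidase promoter measured by SteadyGlo luminescence.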 Format: functional, cell-based.
Assay [12] is described as follows: OVCAR-3 cell viability loss – plate reader, dry powder samples, PAX8 inhibitor project, dose response (AID 743044). Format: functional, cell-based.

Calls of active or inactive are those of the source.

Sequence of Paired box protein Pax-8 (Q06710 whole entry): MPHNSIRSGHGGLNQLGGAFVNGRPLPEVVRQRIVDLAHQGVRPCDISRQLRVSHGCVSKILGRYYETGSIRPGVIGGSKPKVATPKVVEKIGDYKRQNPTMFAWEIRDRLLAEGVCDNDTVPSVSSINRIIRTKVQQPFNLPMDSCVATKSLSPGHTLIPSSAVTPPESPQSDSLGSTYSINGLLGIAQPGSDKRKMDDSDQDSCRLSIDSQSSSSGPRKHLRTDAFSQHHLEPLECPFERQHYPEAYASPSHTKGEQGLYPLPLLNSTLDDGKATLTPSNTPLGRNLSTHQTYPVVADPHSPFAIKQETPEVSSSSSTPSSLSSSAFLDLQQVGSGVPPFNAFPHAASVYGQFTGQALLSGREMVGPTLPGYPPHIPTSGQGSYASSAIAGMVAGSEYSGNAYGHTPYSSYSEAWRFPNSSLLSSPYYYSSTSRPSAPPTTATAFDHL

A word on the IC50: it is the concentration that inhibits the measured activity by half. Consider `Cc1ccc(-c2nc3c(c(=O)c4ccccc4n3C)c(=O)n2Cc2ccco2)cc1`, for which the IC50 in the assay “cells [1]” was 5.74 µM (active). Besides, the CC50 in [2] was 38.3 µM (active). Usually AC50 stands for the midpoint of the concentration-response curve, whichever way the signal moves. The EC50 is the midpoint of the concentration-response curve. On to `N=C(N)Nc1cc2ccccc2c2ccccc12`, for which, in [3], the AC50 was 7.61 µM (active). In addition, the EC50 in “cells [4]” is > 29.9 µM (inactive). Besides, in “cells [5]”, the IC50 is > 29.9 µM (inactive).

As to `COc1ccc(NC(=O)c2ccc(S(=O)(=O)N(C)C)cc2)cc1OC`, in [6], the AC50 was 9.66 µM (active).

For `O=C(O)Cn1cc(/C=C2/NC(=O)N(c3ccc(Cl)cc3)C2=O)c2ccccc21`, the IC50 at Leucine aminopeptidase is 11.9 µM (active). On to `O=C(NNC(=O)c1ccc(SCC2CCCO2)c([N+](=O)[O-])c1)c1ccc(Cl)c([N+](=O)[O-])c1` (centres undefined), for which the IC50 at Estrogen receptor is 23.3 µM (active).

In the case of `O=S(=O)(Nc1cccc2nsnc12)c1ccccc1`, on Leucine aminopeptidase, the IC50 is 15.5 µM (active). For the compound `O=C(Cc1cccs1)N1CCN=C1SCc1ccc(Br)cc1`, the 50% inhibitory concentration (IC50) in assay [7] was > 100 µM (active). Take `CC(C)c1onc(C(=O)NCCc2ccccc2)c1[N+](=O)[O-]`: in “cells [4]”, the EC50 was > 29.9 µM (inactive). For the same compound, the IC50 in “cells [5]” is > 29.9 µM (inactive). In the case of `CC(=O)c1ccc(N2CCN(C(=O)c3ccc4[nH]cnc4c3)CC2)cc1`, in assay [6], the AC50 was 8.11 µM (active). As to `COc1ccc(NC(=O)CSc2ncn(-c3ccccc3)n2)cc1Cl`, the half-inhibitory concentration (IC50) in assay [7] is > 100 µM (active). For the compound `O=C(CNCc1ccco1)Nc1ccc(Oc2ccccc2)cc1`, the figures for the concentration for half-maximal inhibition (IC50) in assay [8] and in assay [7] were 122 µM (active) and > 100 µM (active), respectively. For the compound `Cc1nnc(N2CCC(C(=O)N3CCCCC3)CC2)c2nn(-c3ccc(Cl)cc3)c(C)c12`, the AC50 in assay [6] was 4.14 µM (active). In the case of `CC(C)(C)c1cc(NC(=O)c2cc(F)c(F)c(F)c2F)no1`, the IC50 in the assay “cells [1]” is 41.2 µM (active). As to `Cn1nnc2cc(C(=O)N3CCC(c4ccccc4)C3)ccc21` (centres undefined), the AC50 in assay [6] was 4.86 µM (active). For the same compound, the EC50 in the assay “cells [9]” and in the assay “cells [10]” was > 350 µM (not active) throughout.

Turning to `O=C(CSc1nc[nH]n1)Nc1ncc(C(F)(F)F)cc1Cl`, the concentration for half-maximal inhibition (IC50) on Leucine aminopeptidase was 19.6 µM (active). As for `O=C(COC(=O)CCC(=O)c1cccs1)NCc1ccco1`, the IC50 at Estrogen receptor is 11.9 µM (active). The same measure, in the same setting: with `Cc1cc(SCC(=O)NC(=O)NCc2ccco2)nc2c(C)cccc12` the figure was 32 µM (not active).

Turning to `Cc1ccccc1-n1c(C)nnc1SCc1cc(=O)oc2ccc3ccccc3c12`, the CC50 in [11] was > 50 µM (active). Moreover, the IC50 in the assay “cells [1]” is > 50 µM (active). On to `COC(=O)c1cc(NC(=O)C2CC=CCC2C(=O)O)cc(C(=O)OC)c1` (centres undefined), for which the half-inhibitory concentration (IC50) at Leucine aminopeptidase is 28.6 µM (active). As to `O=C(CCCOc1ccccc1)NCCc1ccccc1`, the EC50 in the assay “cells [4]” was > 29.9 µM (inactive). Besides, in the assay “cells [5]”, the IC50 is > 29.9 µM (inactive). For the compound `O=C(Nc1nc(-c2ccc(-c3ccccc3)cc2)cs1)c1cnccn1`, the half-inhibitory concentration (IC50) in [7] is > 100 µM (active). Take `CC(=O)N1[C@@H]2c3ccc(-c4cccnc4)c(=O)n3C[C@@H]2[C@@H](CO)[C@@H]1C(=O)NCc1ccccc1Cl`: the concentration at half-maximal activity (AC50) in assay [6] is 1.09 µM (active). Turning to `C[C@@H]1CN([C@H](C)CO)C(=O)c2cc(NS(=O)(=O)c3ccc(Cl)cc3)ccc2O[C@@H](C)CCCCO[C@H]1CN(C)Cc1ccc(Cl)c(Cl)c1`, the AC50 at Paired box protein Pax-8 was 4.84 µM (active); in [12] it was 32.8 µM (active). For `COc1ccc(/N=C/c2ccc[nH]2)cc1`, the IC50 in assay [7] is > 100 µM (active).

The values above are taken from ChEMBL document CHEMBL1201862, “PubChem BioAssay data set” (2004).
